Reference: PubChem BioAssay (NCI)
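Exposure lasted 48 hours, with cells grown in 96-well plates and compounds tested at five concentrations. GI50 is the concentration that inhibits growth by half. TGI is the concentration that stops growth completely.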

Columns and labels:
Experiment in all cases: inhibition of tumour cell growth, NCI panel, 48 h
UO-31 renal = test system: UO-31 renal
ACHN renal = test system: ACHN renal
OVCAR-8 ovarian = test system: OVCAR-8 ovarian
MALME-3M melanoma = test system: MALME-3M melanoma
OVCAR-4 ovarian = test system: OVCAR-4 ovarian
SK-MEL-28 melanoma = test system: SK-MEL-28 melanoma
A498 renal = test system: A498 renal
NCI-H226 lung = test system: NCI-H226 lung
MCF7 breast = test system: MCF7 breast
MDA-MB-435 = test system: MDA-MB-435

Row | SMILES | TGI (UO-31 renal) [µM] | TGI (ACHN renal) [µM] | TGI (OVCAR-8 ovarian) [µM] | TGI (MALME-3M melanoma) [µM] | TGI (OVCAR-4 ovarian) [µM] | TGI (SK-MEL-28 melanoma) [µM] | TGI (A498 renal) [µM] | TGI (NCI-H226 lung) [µM] | TGI (MCF7 breast) [µM] | TGI (MDA-MB-435) [µM] | GI50 (UO-31 renal) [nM] | GI50 (ACHN renal) [µM] | GI50 (MCF7 breast) [nM] | GI50 (MDA-MB-435) [nM] | GI50 (OVCAR-8 ovarian) [µM] | GI50 (MALME-3M melanoma) [nM] | GI50 (SK-MEL-28 melanoma) [µM] | GI50 (A498 renal) [µM] | GI50 (OVCAR-4 ovarian) [nM] | GI50 (NCI-H226 lung) [nM]
1 | CCS(CC)(CC)CC1CCCC2=CCC(P(=O)(c3ccccc3)c3ccccc3)CC21 (stereo unspecified) | 20.3 | 22.4 | 31.4 | 40 | 26 | 28.4 | 28 | 39.6 |  |  |  |  |  |  |  |  |  |  |  | 
2 | O=C(O)C(SC(=S)c1ccc(C(=S)SC(C(=O)O)c2ccccc2)cc1)c1ccccc1 (stereo unspecified) | > 100 | > 100 | > 100 | > 100 |  | > 100 | > 100 | > 100 |  |  |  |  |  |  |  |  |  |  |  | 
3 | COC1CC(OS(=O)(=O)c2ccc([N+](=O)[O-])cc2)C(OC(=O)c2ccccc2)C(C)O1 (stereo unspecified) |  | > 100 | > 100 | > 100 | > 100 | > 100 | > 100 |  |  |  |  |  |  |  |  |  |  |  |  | 
4 | Cc1ccc(Nc2n[nH]c(=S)s2)cc1C | > 100 | > 100 | > 100 | > 100 | > 100 | > 100 | > 100 |  | > 100 | > 100 |  |  |  |  |  |  |  |  |  | 
5 | Cc1ccc2nc(NC(=O)C(=O)C(C#N)c3nc4ccccc4s3)sc2c1 (stereo unspecified) | > 100 | > 100 | > 100 | > 100 | > 100 | > 100 | 37.8 | 89.3 |  |  |  |  |  |  |  |  |  |  |  | 
6 | CCOc1ccccc1N1C(=O)C(=O)C(c2nc3ccccc3o2)C(=O)C1=O | > 100 | > 100 | > 100 | > 100 | 45.7 | > 100 | > 100 | > 100 |  |  |  |  |  |  |  |  |  |  |  | 
7 | COc1cc(/C=C2/C(=O)N(C(=O)OCC(C)C)C(Cc3cc(OC)c(OC)c(C)c3OC)C(=O)N2Cc2ccccc2)c(OC)c(C)c1OC (stereo unspecified) | > 100 | > 100 | > 100 | > 100 | > 100 | > 100 | > 100 | 9.7 |  |  |  |  |  |  |  |  |  |  |  | 
8 | COc1ccc2cc(C(=O)/C=C/c3ccc(Cl)cc3Cl)ccc2c1 | 32.3 | 51.3 | 30.4 | > 100 |  | > 100 | 36 |  | > 100 | 17.7 | 15500 | 15.1 | 18100 | 4500 | 14.8 | 23500 | 29.9 | 19.8 |  | 
9 | CN1C(=Nc2ccccc2)SC1=Nc1ccccc1 | > 100 | > 100 | > 100 | 94.3 | > 100 | > 100 | > 100 | > 100 |  |  |  |  |  |  |  |  |  |  |  | 
10 | CCc1cc(C(=O)OC)cn1C(=N)c1ccc(Cl)cc1 | > 100 | > 100 | > 100 | > 100 | > 100 | > 100 | > 100 | > 100 |  |  |  |  |  |  |  |  |  |  |  | 
11 | CCN(CC)c1c(C(=O)/C=C/c2ccc(OC)cc2)c(-c2ccccc2)nn(C)c1=O | > 100 | > 100 | > 100 | 35.1 | 58 | 35.7 | 46.8 | 47.9 |  |  |  |  |  |  |  |  |  |  |  | 
12 | COc1ccc2n[se]nc2c1 | > 100 | > 100 | > 100 | > 100 | > 100 | > 100 |  |  |  |  |  |  |  |  |  |  |  |  |  | 
13 | Cn1cc(C(=O)NCCC(=N)N)cc1NC(=O)C1=[N+](C)C=C(NC(=O)c2cccc(C(=O)NC3=CC(C(=O)Nc4cc(C(=O)NCCC(=N)N)cn4C)=[N+](C)C3)c2)C1 | > 100 | > 100 | > 100 | > 100 | > 100 | > 100 | > 100 | > 100 |  |  |  |  |  |  |  |  |  |  |  | 
14 | Clc1ccc(C2SCc3nc4ccccc4n32)c(Cl)c1 (stereo unspecified) | 24.9 | 28.7 | 32.1 | 32.5 |  | 31.6 | 28.4 | 30.4 |  |  |  |  |  |  |  |  |  |  |  | 
15 | O=C([CH-]C(=O)c1ccccc1)c1ccccc1.O=C([CH-]C(=O)c1ccccc1)c1ccccc1.[La+3].[OH-].[OH3+] | 31.6 | > 100 | 65.4 | 69.5 | > 100 | 57.2 | 87.7 | 17.7 |  |  | 6620 | 19.6 |  |  | 6.67 | 23000 | 17.1 | 17.9 | 26100 | 1670
16 | CN(CCCn1c2c(c3ccccc3c1=O)C(=O)c1ccccc1-2)CCCn1c2c(c3ccccc3c1=O)C(=O)c1ccccc1-2 | 6.26 |  |  | 28.4 | > 100 |  | 74.3 | > 36.9 |  | 17.8 | 1420 |  |  | 1560 |  | 1080 | 1.28 | 11.4 | 2260 | 990
17 | CCOc1ccc2c(c1)[n+]([O-])c(-c1ccc(Cl)cc1)c(N)[n+]2[O-] | > 100 | > 100 | > 100 | > 100 | > 100 | > 100 | > 100 | > 100 |  |  |  |  |  |  |  |  |  |  |  | 
18 | Cc1ccc(S(=O)(=O)OC2CSS(=O)CC2OS(=O)(=O)c2ccc(C)cc2)cc1 (stereo unspecified) | 33 | 31.3 | 22.5 | 27.8 | 32.6 | 29 | 30.1 | 34.4 |  |  |  |  |  |  |  |  |  |  |  | 
19 | COc1ccc(-c2cc(=O)[nH]c3c(OC)c4ccccc4c(OC)c23)cc1 | > 100 | > 100 | > 100 | > 100 | > 100 | > 100 |  | > 100 | > 100 |  | 725 | 0.663 | 357 |  | 1.29 | 2990 | 3.45 | 0.145 | 1210 | > 20000
20 | COC(=O)C1(C)CCC(c2ccc(C)cc2)=C(CC(=O)O)C1 (stereo unspecified) |  | > 100 | > 100 | > 100 | > 100 | > 100 | > 100 |  | > 100 | > 100 |  |  |  |  |  |  |  |  |  | 
21 | Cc1cc(=O)n(-c2ccccc2C)c(C)n1 | > 100 | > 100 | > 100 | > 100 | > 100 | > 100 | > 100 | > 100 |  |  |  |  |  |  |  |  |  |  |  | 
22 | Cc1cc2c(cc1C)N(C(=O)CCl)CC(=O)N2 | 3.24 | 3.24 | 10.8 | 3.81 | 3.05 | 14.8 | 18.2 |  | 10.9 | 10.2 | 1740 | 1.82 | 2450 | 2670 | 3.01 | 1810 | 3.89 | 3.5 | 1590 | 
